Structures are written as SMILES.

What is called Ki is the equilibrium dissociation constant of an inhibitor or competing ligand from its target. The low end stands for tighter binding, the high end for weaker binding.

One experiment deals with T1, Human NPY Y1 receptors (Homo sapiens, UniProt P25929).
T1 construct: expressed in transfected cells; host or cells: CHO cells (membrane protein)
T1 sequence (P25929 1-384): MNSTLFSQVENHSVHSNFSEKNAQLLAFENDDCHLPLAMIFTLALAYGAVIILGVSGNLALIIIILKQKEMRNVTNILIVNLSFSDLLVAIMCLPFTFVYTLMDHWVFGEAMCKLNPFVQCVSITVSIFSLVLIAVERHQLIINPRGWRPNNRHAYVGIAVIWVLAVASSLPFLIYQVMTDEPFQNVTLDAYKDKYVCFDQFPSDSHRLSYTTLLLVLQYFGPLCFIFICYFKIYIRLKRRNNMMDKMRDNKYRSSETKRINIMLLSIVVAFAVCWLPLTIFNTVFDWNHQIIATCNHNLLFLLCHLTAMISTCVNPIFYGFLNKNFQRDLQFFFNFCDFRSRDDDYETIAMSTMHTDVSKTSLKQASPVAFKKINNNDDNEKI
Kind of experiment: NPY Receptor Binding Assay. The conditions noted are these: Procedure A compounds, rated A/B/C. Here is the method: NPY Receptor Binding Assay
Human NPY Y1 receptors were expressed in CHO cells. Binding assays were performed in 50 mM HEPES, pH 7.2, 2.5 mM CaCl2, 1 mM MgCl2 and 0.1% BSA containing 5-10 μg of membrane protein and 0.1 nM […] in a total volume of 200 μl. Non-specific binding was determined in the presence of 1 μM NPY. The reaction mixtures were incubated for 90 minutes at room temperature then filtered through Millipore MAFC glass fiber filter plates which had been pre-soaked in 0.5% polyethleneimine. The filters were washed with phosphate-buffered saline, and radioactivity was measured in a Packard TopCount scintillation counter.
`c1ccc2sc(NCCc3ccc(N(C4=NCCS4)C4=NCCS4)cc3)nc2c1` [Example 14] yielded an inhibition constant Ki greater than 10 µM.

The compound `CS(=O)(=O)c1ccc2nc(NCCc3ccc(NC4=NCCS4)cc3)sc2c1` [Example 15] returned an inhibition constant (Ki) of 1 to 10 µM.

In turn, `COc1ccc2nc(NCCc3ccc(NC4=NCCS4)cc3)sc2c1` [Example 16] yielded a Ki of 1 to 10 µM.

Regarding `Cc1ccc2nc(NCCc3ccc(NC4=NCCS4)cc3)sc2c1` [Example 17], the Ki was in the range of 1 to 10 µM.

In turn, `O=[N+]([O-])c1ccc2nc(NCCc3ccc(NC4=NCCS4)cc3)sc2c1` [Example 18] came in with an inhibitory constant (Ki) of 1 to 10 µM.

Compound `Clc1ccc2nc(NCCc3ccc(NC4=NCCS4)cc3)sc2c1` [Example 19] had a Ki of 1 to 10 µM.

Compound `Clc1cc2nc(NCCc3ccc(NC4=NCCS4)cc3)sc2cc1Cl` [Example 20] came in with a Ki of 1 to 10 µM.

Compound `Fc1ccc2nc(NCCc3ccc(NC4=NCCS4)cc3)sc2c1` [Example 21] registered an inhibition constant Ki of 1 to 10 µM.

Compound `COc1cccc2sc(NCCc3ccc(NC4=NCCS4)cc3)nc12` [Example 22] showed an inhibitory constant (Ki) of 1 to 10 µM.

In turn, `Cc1cccc2sc(NCCc3ccc(NC4=NCCS4)cc3)nc12` [Example 23] registered a Ki of 1 to 10 µM.

Turning to `c1ccc(NC2=NCCS2)c(CCNc2nc3ccccc3s2)c1` [Example 24], the Ki was greater than 10 µM.

In turn, `c1cc(CCNc2nc3ccccc3s2)cc(NC2=NCCS2)c1` [Example 25] yielded a Ki greater than 10 µM.

The same experiment, now with this note: Procedure B compounds, rated A/B/C.
`CCOC(=O)N1CCN=C1Nc1ccc(CCNc2nc3ccccc3s2)cc1` [Example 26] registered a Ki greater than 10 µM.

For the compound `CCOC(=O)N1CC(c2ccccc2)N=C1Nc1ccc(CCNc2nc3ccccc3s2)cc1` (centres unmarked) [Example 27], the inhibitory constant (Ki) was greater than 10 µM.

For `CCOC(=O)N1C(Nc2ccc(CCNc3nc4ccccc4s3)cc2)=NC(C)C1c1ccccc1` (centres unmarked) [Example 28], the Ki was greater than 10 µM.

Take `CCOC(=O)N1CC2(CCCC2)N=C1Nc1ccc(CCNc2nc3ccccc3s2)cc1` [Example 29]: the inhibition constant Ki was greater than 10 µM.

Consider `O=C(c1ccccc1)N1CC(c2ccccc2)N=C1Nc1ccc(CCNc2nc3ccccc3s2)cc1` (centres unmarked) [Example 30], for which the Ki was greater than 10 µM.

With `CC1N=C(Nc2ccc(CCNc3nc4ccccc4s3)cc2)N(C(=O)c2ccccc2)C1c1ccccc1` (centres unmarked) [Example 31], the Ki is greater than 10 µM.

Consider `O=C(c1ccccc1)N1CC2(CCCC2)N=C1Nc1ccc(CCNc2nc3ccccc3s2)cc1` [Example 32], for which the Ki was greater than 10 µM.

Compound `CCC1CN(C(=O)c2ccccc2)C(Nc2ccc(CCNc3nc4ccccc4s3)cc2)=N1` (centres unmarked) [Example 33] yielded a Ki greater than 10 µM.

Consider `CCOC(=O)N1CC2CCCN2/C1=N\c1ccc(CCNc2nc3ccccc3s2)cc1` (centres unmarked) [Example 34], for which the Ki is greater than 10 µM.

As for `O=C(c1ccccc1)N1CC2CCCN2/C1=N\c1ccc(CCNc2nc3ccccc3s2)cc1` (centres unmarked) [Example 35], the Ki is greater than 10 µM.

The experiment is the same for the next values; noted with them: Procedure C compounds, rated A/B/C.
Regarding `CCOC(=O)N1C(=O)CN=C1Nc1ccc(CCNc2nc3ccccc3s2)cc1` [Example 36], the Ki was greater than 10 µM.

The compound `CCOC(=O)N1C(=O)[C@H](C)N=C1Nc1ccc(CCNc2nc3ccccc3s2)cc1` [Example 37] gave a Ki greater than 10 µM.

`CCOC(=O)N1C(=O)[C@H](CC(=O)O)N=C1Nc1ccc(CCNc2nc3ccccc3s2)cc1` [Example 38] returned an inhibition constant Ki greater than 10 µM.

Turning to `CCOC(=O)N1C(=O)[C@H](CC2CCCCC2)N=C1Nc1ccc(CCNc2nc3ccccc3s2)cc1` [Example 39], the Ki is greater than 10 µM.

Regarding `CCOC(=O)N1C(=O)[C@H](CCC(=O)O)N=C1Nc1ccc(CCNc2nc3ccccc3s2)cc1` [Example 40], the inhibitory constant (Ki) is greater than 10 µM.

Regarding `CCOC(=O)N1C(=O)[C@H]([C@@H](C)CC)N=C1Nc1ccc(CCNc2nc3ccccc3s2)cc1` [Example 41], the Ki is greater than 10 µM.

Regarding `O=C(O)C[C@@H]1N=C(Nc2ccc(CCNc3nc4ccccc4s3)cc2)N(C(=O)c2ccccc2)C1=O` [Example 49], the Ki is greater than 10 µM.

In the case of `O=C(c1ccccc1)N1C(=O)[C@H](CC2CCCCC2)N=C1Nc1ccc(CCNc2nc3ccccc3s2)cc1` [Example 50], the Ki is greater than 10 µM.

In the case of `O=C(O)CC[C@@H]1N=C(Nc2ccc(CCNc3nc4ccccc4s3)cc2)N(C(=O)c2ccccc2)C1=O` [Example 51], the Ki is greater than 10 µM.

Consider `CC[C@H](C)[C@@H]1N=C(Nc2ccc(CCNc3nc4ccccc4s3)cc2)N(C(=O)c2ccccc2)C1=O` [Example 52], for which the Ki is greater than 10 µM.

Compound `CC(C)C[C@@H]1N=C(Nc2ccc(CCNc3nc4ccccc4s3)cc2)N(C(=O)c2ccccc2)C1=O` [Example 53] registered a Ki greater than 10 µM.

On to `CSCC[C@@H]1N=C(Nc2ccc(CCNc3nc4ccccc4s3)cc2)N(C(=O)c2ccccc2)C1=O` [Example 54], for which the inhibitory constant (Ki) was greater than 10 µM.

The same experiment, now with this note: Procedure E compounds, rated A/B/C.
`O=[N+]([O-])c1ccc2nc(NCCc3ccc(N=C4NCCCS4)cc3)sc2c1` [Example 62] came in with a Ki greater than 10 µM.

`CS(=O)(=O)c1ccc2nc(NCCc3ccc(/N=C4/NC(c5ccccc5)CCS4)cc3)sc2c1` (centres unmarked) [Example 64] displayed a Ki of 1 to 10 µM.

Take `CS(=O)(=O)c1ccc2nc(NCCc3ccc(NC4=NCCCS4)cc3)sc2c1` [Example 65]: the Ki lay within 1 to 10 µM.

Compound `Clc1cc2nc(NCCc3ccc(/N=C4/NC(c5ccccc5)CCS4)cc3)sc2cc1Cl` (centres unmarked) [Example 66] returned a Ki greater than 10 µM.

`O=[N+]([O-])c1ccc2nc(NCCc3ccc(/N=C4/NC(c5ccccc5)CCS4)cc3)sc2c1` (centres unmarked) [Example 67]: the Ki was greater than 10 µM.

In the case of `c1ccc(/N=C2\NCCCS2)c(CCNc2nc3ccccc3s2)c1` [Example 68], the Ki was greater than 10 µM.

As for `c1cc(CCNc2nc3ccccc3s2)cc(/N=C2\NCCCS2)c1` [Example 69], the Ki was greater than 10 µM.

With `c1ccc(C2CCS/C(=N/c3ccccc3CCNc3nc4ccccc4s3)N2)cc1` (centres unmarked) [Example 70], the Ki was greater than 10 µM.

Compound `c1ccc(C2CCS/C(=N/c3cccc(CCNc4nc5ccccc5s4)c3)N2)cc1` (centres unmarked) [Example 71] gave a Ki greater than 10 µM.

`Clc1cc2nc(NCCc3ccc(N=C4NCCCS4)cc3)sc2cc1Cl` [Example 72] returned an inhibition constant Ki of less than 1 µM.

As to `c1ccc(CN2CCS/C2=N\c2ccc(CCNc3nc4ccccc4s3)cc2)cc1` [Example 74], the inhibitory constant (Ki) was greater than 10 µM.

Regarding `O=[N+]([O-])c1ccc2nc(NCCc3ccc(/N=C4/NC5(CCCC5)CS4)cc3)sc2c1` [Example 75], the Ki fell in the range of 1 to 10 µM.

The compound `CC1(C)CS/C(=N\c2ccc(CCNc3nc4ccc([N+](=O)[O-])cc4s3)cc2)N1` [Example 76] gave a Ki greater than 10 µM.

With `COc1ccc2nc(NCCc3ccc(/N=C4\SC5Cc6ccccc6[C@@H]5N4C)cc3)sc2c1` (some centres unmarked) [Example 77], the Ki is greater than 10 µM.

Take `COc1ccc2nc(NCCc3ccc(/N=C4\SC5CCC[C@H]5N4C)cc3)sc2c1` (some centres unmarked) [Example 78]: the Ki was greater than 10 µM.

The compound `COc1ccc2nc(NCCc3ccc(/N=C4\SC5Cc6ccccc6[C@@H]5N4C4CC4)cc3)sc2c1` (some centres unmarked) [Example 79] displayed a Ki greater than 10 µM.

As for `COc1ccc2nc(NCCc3ccc(/N=C4\SCCN4C)cc3)sc2c1` [Example 80], the Ki was greater than 10 µM.

In the case of `COc1ccc2nc(NCCc3ccc(/N=C4/N[C@@H](Cc5ccccc5)CS4)cc3)sc2c1` [Example 81], the Ki fell in the range of 1 to 10 µM.

`COc1ccc2nc(NCCc3ccc(/N=C4/N[C@H](CC(C)C)CS4)cc3)sc2c1` [Example 82] registered a Ki of less than 1 µM.

Turning to `COc1ccc2nc(NCCc3ccc(/N=C4\SC[C@@H]5CCCN45)cc3)sc2c1` [Example 83], the Ki is greater than 10 µM.

In turn, `CCC1CS/C(=N\c2ccc(CCNc3nc4ccc(OC)cc4s3)cc2)N1` (centres unmarked) [Example 84] came in with a Ki of less than 1 µM.

For the compound `COc1ccc2nc(NCCc3ccc(/N=C4/NCC(c5ccccc5)S4)cc3)sc2c1` (centres unmarked) [Example 85], the inhibitory constant (Ki) was greater than 10 µM.

The experiment is the same for the next values; noted with them: Table 1, rated A/B/C.
`Clc1ccc(C2CCSC(Nc3ccc(CCNc4nc5ccccc5s4)cc3)=N2)cc1` (centres unmarked) [Example 2] gave an inhibition constant (Ki) of less than 1 µM.

`COc1ccc(C2CCSC(Nc3ccc(CCNc4nc5ccccc5s4)cc3)=N2)cc1` (centres unmarked) [Example 3] returned a Ki of less than 1 µM.

As for `Clc1cccc(C2CCSC(Nc3ccc(CCNc4nc5ccccc5s4)cc3)=N2)c1` (centres unmarked) [Example 4], the inhibitory constant (Ki) was less than 1 µM.

`Brc1ccc(C2CCSC(Nc3ccc(CCNc4nc5ccccc5s4)cc3)=N2)cc1` (centres unmarked) [Example 5] registered a Ki of less than 1 µM.

The compound `c1ccc(C2CCCC(Nc3ccc(CCNc4nc5ccccc5s4)cc3)=N2)cc1` (centres unmarked) [Example 6] gave an inhibition constant (Ki) of less than 1 µM.

`c1ccc([C@@H]2CSC(Nc3ccc(CCNc4nc5ccccc5s4)cc3)=N2)cc1` [Example 7]: the Ki is less than 1 µM.

As for `c1ccc([C@H]2CSC(Nc3ccc(CCNc4nc5ccccc5s4)cc3)=N2)cc1` [Example 8], the Ki was in the range of 1 to 10 µM.

With `c1ccc2sc(NCCc3ccc(NC4=NC(C5CCCCC5)CCS4)cc3)nc2c1` (centres unmarked) [Example 9], the Ki is less than 1 µM.

`CC(C)C1CCSC(Nc2ccc(CCNc3nc4ccccc4s3)cc2)=N1` (centres unmarked) [Example 10]: the Ki was less than 1 µM.

`CC1CCSC(Nc2ccc(CCNc3nc4ccccc4s3)cc2)=N1` (centres unmarked) [Example 11]: the Ki is less than 1 µM.

For `CC(C)CC1CCSC(Nc2ccc(CCNc3nc4ccccc4s3)cc2)=N1` (centres unmarked) [Example 12], the Ki was less than 1 µM.

Turning to `c1ccc(CCC2CCSC(Nc3ccc(CCNc4nc5ccccc5s4)cc3)=N2)cc1` (centres unmarked) [Example 13], the Ki is less than 1 µM.

The values above are taken from US7459450B2, “Neuropeptide receptor modulators” (Schering Corporation, priority 2004, dated 2008).
